Reference: publication PMC3904663 (Nature, 2013)

Target: Drosophila melanogaster dopamine transporter (dDATcryst) (Drosophila melanogaster, UniProt Q7K4Y6, V74A/DEL164-206/V275A/V311A/L415A/G538L)
Type: binding

## CNCCC(Oc1ccccc1OC)c1ccccc1 (stereo not shown) [nisoxetine]
  Kd: 29 nM
